Reference: patent US20260091138A1, “VARIANTS OF COAGULATION FACTOR VIII AND USES THEREOF” (Seattle Children’s Hospital d/b/a Seattle Children’s …, priority 2022, published 2026)
Entries after “also recorded” stand apart in the source; their conditions may differ. No end group written: not given here. Man6GlcNAc2 = high-mannose N-glycan (six mannose on two GlcNAc); GlcNAc = N-acetyl-glucosamine (single GlcNAc)

How the values were obtained:
[1] = test system: CD4+ T-cells in splenocytes isolated from FVIII-primed HA mice; test: FVIII-specific CD4+ T-cell proliferation assay; assay type: cell-based, mouse; details: for effect of peptide on CD4+ T-cell proliferation (in words): peptides 0.1 μM to 10 μM; for CD4+ T-cell proliferation: 96 hours, background subtracted
Method: (§1) CD4^+ T-cell Proliferation Assay. Mice with high titer anti-FVIII inhibitors were generated as described in the Supplemental Methods. Mouse splenocytes were isolated and stained with BD Horizon™ violet cell proliferation dye 450 (VPD450) (BD Biosciences). The labeled splenocytes were cultured and stimulated by adding FVIII as a positive proliferation control, Factor IX as a nonspecific antigen control, or peptides, either glycosylated or non-glycosylated, corresponding to site N2118. Mannan (0.1, 1, and 10 μM, respectively) was added in mannan inhibition experiments. After 96 hours, cells were stained with anti-mouse CD4 and Fixable Viability Stain (Fisher Scientific) and analyzed by flow cytometry (BDT LSR II analyzer (Fisher Scientific)). The enhancement of proliferation was calculated by subtracting the background levels in non-stimulated cells.
Generation of hemophilia A mice with high-titer inhibitors. Anti-FVIII inhibitor mice were generated by priming the mice with 3 units (U) of recombinant full-length FVIII in 200 uL PBS 3× a week for four weeks. Mice were then sacrificed on week 5 for spleen collection or boosted one-week prior to spleen collection. Blood was drawn via retro-orbital bleed on the day of sacrifice in the same manner as before in order to measure IgG titer via enzyme-linked immunosorbent assay (ELISA).

[2] = test system: HA mice; test: FVIII functional activity (aPTT) and FVIII:Ag after hydrodynamic injection of BDD-FVIII and glycosylation variant plasmids; assay type: in vivo, mouse; details: one-week post hydrodynamic plasmid injection, average ± SD
Method: (§2) Delivery of plasmids carrying BDD-FVIII and its glycosylation variants genes into HA mice. Male HA mice with a FVIII exon 16 knockout in an Sv129/BL6 mixed background between the ages of 8-14 weeks were used in all experiments. Mice were injected with liver-specific plasmids carrying BDD-FVIII and its glycosylation variants genes (FIG. 2) via hydrodynamic injection at a concentration of 25 μg/mL and a volume (ml) equal to 9% the body weight of the mouse (g). A second challenge (SC) of the same plasmids via hydrodynamic injection was performed on Day 86 to elicit robust secondary immune responses. Blood was collected by retro-orbital bleed in one-tenth volume of 3.8% sodium citrate periodically following plasmid injections.
FVIII antigen (FVIII:Ag) ELISA. FVIII:Ag levels in mouse plasma post hydrodynamic injection with FVIII plasmids were determined by ELISA using murine anti-FVIII antibody (GMA-8020, Green Mountain Antibody, Burlington, VT) and biotin-labeled murine anti-FVIII antibody (GMA-8015, Green Mountain Antibody, Burlington, VT).

[3] = test system: HA mice; test: Total anti-FVIII IgG ELISA after plasmid-mediated gene transfer; assay type: in vivo, mouse
Method: as §2
Supplemental Methods. Measurement of total anti-FVIII IgG. 96 well flat bottom ELISA plates (Corning, Kennebunk, ME) were coated overnight at 4° C. with 0.44 U FVIII/well in coating buffer. Plates were then incubated with blocking buffer (1×Tris-Buffered Saline (TBS), 0.1% Tween-20, and 20% non-fat milk for 1 hour at 37° C. Plates were washed three times with wash buffer I 1×TBS and 0.1% Tween-20) between incubation steps. […] Concentrations of anti-FVIII IgG were evaluated by interpolation against the linear range on a standard curve created using mouse isotype control (Thermo Scientific) that was run in duplicate alongside samples on all plates.

[4] = test system: HA mice; test: Anti-FVIII inhibitor titers by Bethesda assay after plasmid-mediated gene transfer; assay type: in vivo, mouse
Method: as §2

[5] = test system: CD4+ T-cells in splenocytes isolated from FVIII-primed HA mice; test: Mannan inhibition in FVIII-specific T cell proliferation assay; assay type: cell-based, mouse
Method: as §1

Substance: D2108GKKWQTYRGN2118STGT2122 (DGKKWQTYRGN(Man6GlcNAc2)STGT; also: mannosylated; UniProt P00451 2127-2141, looked up, fragment) [2118MP3, mannosylated overlapping 15-mer Peptide 3]
- effect of peptide on CD4+ T-cell proliferation (in words) [1]: little to no proliferation

Substance: K2111WQTYRGN2118STGTLMV2125 (KWQTYRGN(GlcNAc)STGTLMV; UniProt P00451 2130-2144, looked up, fragment) [2118GlcP1, Peptide 1 with a single GlcNAc residue at N2118]
- effect of peptide on CD4+ T-cell proliferation (in words) [1]: negligible effects

Substance: T2114YRGN2118STGTLMVFFG2128 (TYRGN(Man6GlcNAc2)STGTLMVFFG; also: mannosylated; UniProt P00451 2133-2147, looked up, fragment) [2118MP2, mannosylated overlapping 15-mer Peptide 2]
- CD4+ T-cell proliferation ([1]; peptide 1 μM): 2.9±0.6%
- CD4+ T-cell proliferation ([1]; peptide 10 μM): 5.5±2.0%
- effect of peptide on CD4+ T-cell proliferation (in words) ([1]; listed as MP2): Enhanced proliferation; also recorded: higher proliferation compared to MP1

Substance: K2111WQTYRGN2118STGTLMV2125 (KWQTYRGNSTGTLMV; non-glycosylated; UniProt P00451 2130-2144, looked up, fragment) [2118NGP1, non-glycosylated 15-mer FVIII peptide centered around site N2118]
- effect of peptide on CD4+ T-cell proliferation (in words) [1]: negligible effects
- effect of peptide on CD4+ T-cell proliferation (in words) ([1]; listed as NGP1): negligible effects; also recorded: nearly no proliferation

Substance: FIX: Factor IX as a nonspecific antigen control [reference compound]
- CD4+ T-cell proliferation response to protein antigen controls ([1]; increasing doses of FVIII, FIX as nonspecific antigen control): no response

Substance: T2114YRGN2118STGTLMVFFG2128 (TYRGNSTGTLMVFFG; non-glycosylated; UniProt P00451 2133-2147, looked up, fragment) [2118NGP2, non-glycosylated counterpart of 2118MP2]
- effect of peptide on CD4+ T-cell proliferation (in words) [1]: nearly no proliferation

Substance: N2118Q: BDD-FVIII plasmid variant with N2118Q mutation in the C1 domain eliminating the 2118 glycosylation site (SEQ ID NO: 23)
- FVIII functional activity levels in treated mouse plasma (average activity) [2]: 223±77%
- anti-FVIII IgG level compared to the other three groups ([3]; peak around day 56, after first plasmid transfer): lower antibody levels; also recorded: lower IgG level
- drastic increase in anti-FVIII levels after the second challenge ([3]; second plasmid challenge on day 84, hydrodynamic injection): did not; also recorded: remained at a low level
- inhibitor responses to FVIII following first plasmid challenge compared to WT BDD-FVIII plasmid ([4]; after first plasmid challenge): trend of decreased inhibitor responses
- inhibitor titer / inhibitor responses post-second challenge ([4]; after second plasmid challenge, compared with WT BDD-FVIII): significantly lower inhibitor titer; also recorded: statistically significant lower inhibitor responses
- inhibitor titers (Bethesda assay) compared to other groups ([4]; day 56, after first plasmid transfer): lower inhibitor titers; also recorded: Low inhibitor titers

Substance: mannan
- inhibition of T cell proliferation by mannan ([5]; in response to 0.1 U/ml FVIII): only partially inhibited
- inhibition of T cell proliferation by mannan ([5]; in response to 1 U/ml or 10 U/ml FVIII): no inhibition
- inhibition of T cell proliferation by mannan ([5]; in response to MP1 at 0.1 and 1 μM): inhibited
- inhibition of T cell proliferation by mannan ([5]; in response to all three concentrations of 2118MP1): inhibited

Substance: K2111WQTYRGN2118STGTLMV2125 [2118MP1]
- CD4+ T-cell proliferation ([1]; peptide 10 μM): 4.2±1.3%
- effect of peptide on CD4+ T-cell proliferation (in words) ([1]; listed as MP1): increased proliferation levels; also recorded: Enhanced proliferation
